Reference: patent US20100317733A1, “USE OF CIS-EPOXYEICOSANTRIENOIC ACIDS AND INHIBITORS OF SOLUBLE EPOXIDE HYDROLASE TO REDUCE PULMONARY INFILTRATION BY NEUTROPHILS” (THE REGENTS OF THE UNIVERSITY OF CALIFORNIA, priority 2004, published 2010)
Entries after “also recorded” stand apart in the source; their conditions may differ.

Columns and labels:
[1] = biological target: T1, sEH (Homo sapiens, UniProt P34913); test: Inhibition of soluble epoxide hydrolase (sEH); format: biochemical
T1 sequence (P34913 1-555): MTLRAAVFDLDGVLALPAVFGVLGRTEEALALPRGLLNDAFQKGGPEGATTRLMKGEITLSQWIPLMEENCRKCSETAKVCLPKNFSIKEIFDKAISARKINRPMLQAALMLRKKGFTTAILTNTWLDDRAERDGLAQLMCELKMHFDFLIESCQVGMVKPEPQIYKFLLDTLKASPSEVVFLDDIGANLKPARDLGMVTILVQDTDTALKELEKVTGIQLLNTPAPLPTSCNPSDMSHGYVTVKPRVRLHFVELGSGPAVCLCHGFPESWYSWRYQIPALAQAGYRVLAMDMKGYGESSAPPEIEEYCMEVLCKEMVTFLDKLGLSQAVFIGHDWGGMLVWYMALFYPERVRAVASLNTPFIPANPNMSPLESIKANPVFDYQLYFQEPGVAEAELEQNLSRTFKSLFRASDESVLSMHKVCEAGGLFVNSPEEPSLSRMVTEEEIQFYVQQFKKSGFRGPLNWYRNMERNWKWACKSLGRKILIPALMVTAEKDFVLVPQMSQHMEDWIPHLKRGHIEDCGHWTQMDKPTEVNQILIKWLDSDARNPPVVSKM
Description: The enzyme also can be detected based on the binding of specific ligands to the catalytic site which either immobilize the enzyme or label it with a probe such as dansyl, fluoracein, luciferase, green fluorescent protein or other reagent.
The assays are normally carried out with a recombinant enzyme following affinity purification.

[2] = Metabolic stability (stated, no method)
[3] = test system: tobacco smoke-induced inflammation in the lungs of rats; details: Smith 2002; cited from earlier work
[4] = test system: cells in BAL from rats exposed to tobacco smoke; test: Bronchoalveolar lavage (BAL) cell counts and differentials in rats exposed to tobacco smoke for 3 days; format: in vivo, SH rats; details: for % Eosinophils / % Lymphocytes / % Macrophages / % Neutrophils: cell differential in BAL, 3 days, mean ± SE (n = 4)
Description: Animals. Healthy, 11-week-old male spontaneously hypertensive (“SH”) (SHR/NCrlBR) rats (derived from WKY rats by phenotypic segregation of the hypertensive trait and inbreeding) were purchased from Charles River Laboratories (Portage, Mich.) and quarantined for 1 week prior to exposure to tobacco smoke. Animals were handled in accordance with standards established by the U.S. Animal Welfare Acts set forth in National Institutes of Health guidelines and the University of California, Davis Animal Care and Use Committee. The rats were housed in plastic cages with TEK-Chip pelleted paper bedding (Harlan Teklad, Madison, Wis.) and maintained on a 12 hour light/12 hour dark cycle. All animals had access to water and Laboratory Rodent Diet 5001 purchased from LabDiet (Brentwood, Mo.) ad libitum before, during and after exposures.
Subcutaneous Implantation of EETs for Tobacco Smoke Exposures. Wax formulations containing EETs were implanted subcutaneously 1 day prior to onset of exposure to tobacco smoke. Animals were implanted with the EETs formulation on the day before the first day of exposure. Four animals from the control group and four animals from the tobacco smoke-exposed group were implanted with the EETs formulation. The approach of a single subcutaneous implantation for the 3-day study was selected to minimize stress to animals from anesthesia.
Subcutaneous injection of AUDA-nBE for Tobacco Smoke Exposures. AUDA-nBE (7 mg/1 ml corn oil) was subcutaneously administered in SH rats at a dose of 10 mg/kg bodyweight. The total volume injected was 0.36 to 0.46 ml. Animals were injected with AUDA-nBE each day prior to exposure. Doses of AUDA-nBE used in this study were selected based on results from preliminary pharmacokinetic studies in mice and rats. These doses were selected to provide optimal efficacy and minimal toxicity over a three-day period. Four animals from the control group and four animals from the tobacco smoke-exposed group were injected with AUDA-nBE. Four animals with EETs implants from the control group and four animals with EETs implants from the tobacco smoke-exposed group were injected with AUDA-nBE. In addition, four control animals and four tobacco smoke-exposed animals were injected with corn oil using the same protocol as the AUDA-nBE -injected animals.
Tobacco Smoke Exposure. Rats were exposed to a mixture of sidestream and mainstream cigarette smoke in a smoking apparatus (Teague, S. V. et al., Inhal. Toxicol. 6:79-93 (1994)). The cigarettes were humidified 2R4F research cigarettes (Tobacco Health Research Institute; Lexington, Ky.). An automatic metered puffer was used to smoke the cigarettes under Federal Trade Commission conditions (35 ml puff, 2 sec duration, 1 puff per min). The smoke was collected in a chimney, diluted with filtered air, and delivered to whole-body exposure chambers. The exposures were characterized for three major constituents of cigarette smoke; nicotine, carbon monoxide, and total suspended particulates (TSP). […] Carbon monoxide was measured every 30 minutes, TSP every 2 hours, and nicotine once per day (approximately midway through the exposure period).
Bronchoalveolar Lavage. Established protocols were followed for bronchoalveolar lavage (BAL) of animals (Gossart, S. et al., J. Immunol. 156:1540-1548 (1996)). Eighteen hours after the last exposure to tobacco smoke, animals were anesthetized with an overdose of sodium pentobarbital. The trachea was cannulated and the lung lavaged with one aliquot of Ca^2+/Mg^2+-free phosphate buffered saline (PBS, pH 7.4). The volume of the aliquot was equal to 35 ml/kg body weight (approximately 90% of total lung capacity). The aliquot was instilled into the lungs three times before final collection. The BAL fluid (BALF) was immediately centrifuged at 250×g for 10 min at 4° C. to remove cells. The cell pellet was then resuspended in PBS and the cells counted with a hemocytometer. […]

[5] = Pharmacokinetics in SH rats following subcutaneous administration; format: in vivo
Description: Equipment. LC-MS-MS analysis was performed using a Micromass Quattro Ultima triple quadrupole tandem mass spectrometer (Micromass, Manchester, UK) equipped with atomospheric pressure ionization source [atomospheric z-spray pressure chemical ionization (APcI) or electrospray ionization (ESI) interface]. The HPLC system consisted of a Waters model 2790 separations module (Waters Corporation, Milford, Mass.) including an autosampler with refrigerated sample compartment and as inline vacuum degasser and Waters model 2487 dual λ absorbance detector (Waters Corporation). An XTerra™MS C18 column (30×2.1 mm I. D., 3.5 μm; Waters Corporation) was used with a flow rate of 0.3 mL/min at ambient temperature. Data were manipulated with MassLynx software (Ver. 4.0).
LC-MS-MS conditions. The ESI mass spectrometer was operated in the positive ion mode with a capillary voltage at 1.0 kV. Cone gas (N2) and desolvation gas (N2) were maintained at flow rates of 130 and 630 L/h, respectively. The source and the desolvation temperature were set at 100° C. and 300° C., respectively. […] Quantitative analysis was performed in the multiple reaction monitoring (MRM) mode with a dwell time of 300 ms. Ultra pure argon (99.9999%) was used as a collision gas at a pressure of 2.5 milli-torr for collision-induced dissociation (CID). […]
Pharmacokinetics analysis. […] AUCt was calculated by the linear/log trapezoidal rule.

For CCCCCCCCCCCCNC(=O)NC12CC3CC(CC(C3)C1)C2 [ADU, N-Adamantyl-N′-dodecyl urea], the “activity as an inhibitor of sEH” value [1] was “particularly high activity” and the metabolic stability [2] was “metabolically stable”.

For CCN1C=CN(CC)C1=C1C2=NC(=C(c3n(CC)cc[n+]3CC)C3=NC(=C(c4n(CC)cc[n+]4CC)c4ccc([n-]4)C(c4n(CC)cc[n+]4CC)=C4C=CC1=N4)C=C3)C=C2.[Cl-].[Cl-].[Cl-].[Cl-].[Cl-].[Mn+3] [AEOL 10150], the “tobacco smoke-induced inflammation in the lungs” value [3] is listed as “decrease”.

In the case of CCCCOC(=O)CCCCCCCCCCCNC(=O)NC12CC3CC(CC(C3)C1)C2 [AUDA-nBE, 12-(3-adamantane-1-yl-ureido)-dodecanoic acid butyl ester], the “% Eosinophils” value ([4]; filtered air) is reported as 0.15 ± 0.10%, the “% Lymphocytes” value ([4]; filtered air) is reported as 0.55 ± 0.15% and the “% Macrophages” value ([4]; filtered air) is reported as 92.1 ± 1.6%. For the same molecule, the “% Neutrophils” value ([4]; filtered air) was 7.3 ± 1.8%, the “% Eosinophils” value ([4]; tobacco smoke) was 0.10 ± 0.10% and the “% Lymphocytes” value ([4]; tobacco smoke) was 0.25 ± 0.10 %. The “% Macrophages” value ([4]; tobacco smoke) was 62.9 ± 1.8 %, the “% Neutrophils” value ([4]; tobacco smoke) was 36.8 ± 1.6 % and the “reduction in the number of neutrophils found in the lungs” value ([4]; rats, animal model of COPD (tobacco smoke), FIG. 4) was roughly 55%. For the same molecule, the “total number of cells in BALF” value ([4]; tobacco smoke 3 days, treatment before exposure, FIG. 2) was “significantly decreased”, the “number of BALF macrophages” value ([4]; tobacco smoke 3 days, treatment before exposure, FIG. 3) was “significantly decreased; also recorded: significant reductions” and the “number of BALF neutrophils” value ([4]; tobacco smoke 3 days, treatment before exposure, FIG. 4) was “significantly decreased; also recorded: significant reductions”. The “number of BALF lymphocytes” value ([4]; tobacco smoke 3 days, treatment before exposure, FIG. 5) was “decreased the number of BALF lymphocytes to levels not significantly different from filtered air controls; also recorded: significant reductions” and the “metabolism of the prodrug” value ([5]; subcutaneous administration) was “metabolized to AUDA”.

Molecule O=C(O)CCCCCCCCCCCNC(=O)NC12CC3CC(CC(C3)C1)C2 [AUDA] has a half-life ([5]; blood, single subcutaneous dose of AUDA-nBE 10 mg/kg) of 22 h.
